Experimental data reported in patent US7531318B2, “Screening of agents for activity against ischemic myocardial insults” (priority 2004, dated 2009).

What was measured:
[1] = system: ILK, Akt (serine 473) in C2C12 myoblasts and embryonic heart explants; test: ILK localization/expression and Akt phosphorylation by immunocytochemistry and western blot; format: cell-based
Procedure: (§1) Immunocytochemistry on collagen gel explants. Paraformaldehyde-fixed explants were permeabilized for 10 min at room temperature with Permeabilize solution (10 mM PIPES pH 6.8; 50 mM NaCl, 0.5% Triton X-100, 300 mM sucrose, 3 mM MgCl2) and rinsed with PBS twice for 5 min each at room temperature. After a series of blocking and rinsing steps, detection antibodies were used and explants rinsed and incubated with equilibration buffer (Anti-Fade kit) for 10 min at room temperature. Explants were scooped to a glass microscope slide, covered and examined by fluorescein microscopy. TUNEL assay was performed using ApopTag plus fluorescein in situ apoptosis detection kit (Intergen Company S7111) as recommended.
Because recruitment of ILK to the focal adhesion complex is important for its activation, the inventors assayed the effects of thymosin β4 on ILK localization and expression. […] Because thymosin β4 sequesters the pool of G-actin monomers, the inventors asked whether the effects on ILK activation were dependent on the role of thymosin β4 in regulating the balance between polymerized F-actin and monomeric G-actin.

[2] = system: E11.5 cardiac outflow tract explants (myocardial cells); test: Collagen gel migration assay, embryonic heart explant: myocardial cell migration and beating; format: cell-based, mouse
Procedure: Collagen gel migration assay. Outflow tract was dissected from E11.5 wild-type mouse embryos and placed on collagen matrices as previously described (Runyan and Markwald, 1983. After 10 h of attachment explants were incubated in 30 ng per 300 μl thymosin β4 in PBS, PBS alone or thymosin β4 and 100 nM wortmannin. Cultures were carried out for 3-9 days at 37° C. 5% CO2 and fixed in 4% paraformaldehyde in PBS for 10 min at room temperature. Cells were counted for quantification of migration and distance using at least three separate explants under each condition for endothelial migration and eight separate explants for myocardial migration.
as §1
To test the effects of secreted thymosin β4 on cardiac cell migration, the inventors used an embryonic heart explant system designed to assay cell migration and transformation on a collagen gel (Runyan and Markwald, 1983).
To determine whether activation of ILK was necessary for the observed effects of thymosin β4, the inventors used a well-described ILK inhibitor, wortmannin, which inhibits ILK's upstream kinase, phosphatidylinositol-3-OH kinase (PI(3)K) (Delcommenne et al., 1998). Using myocardial cell migration and beating frequency as assays for thymosin β4 activity, the inventors cultured embryonic heart explants as described above in the presence of thymosin β4 with or without wortmannin.

[3] = system: rat neonatal cardiomyocytes; test: Primary neonatal cardiomyocyte culture on laminin-coated glass: migration, survival, beating; format: cell-based
Text: To test the response of postnatal cardiomyocytes, the inventors cultured primary rat neonatal cardiomyocytes on laminin-coated glass and treated the cells with phosphate-buffered saline (PBS) or thymosin β4.
Primary culture of neonatal cardiomyocytes typically survives for approximately 1 to 2 weeks, with some cells beating for up to 2 weeks when grown on laminin-coated slides in our laboratory. […] In addition, the rate of beating was consistently faster in thymosin-β4-treated neonatal cardiomyocytes (95 versus 50 beats per minute, P<0.02), indicating either a change in cell-cell communication or cell metabolism (FIG. 2M; see also Supplementary FIGS. 1A-I and 2A-M).

PINCH = target: T1, PINCH (Mus musculus, UniProt Q99JW4); test: Phage display, ELISA and co-immunoprecipitation of thymosin β4 interacting proteins: PINCH; format: binding
T1 construct: Myc or Flag (co-immunoprecipitation part only); expressed in transfected cells; host or cells: Cos and 10T1/2 cells (co-IP); T7Select10-3 phage displaying mouse embryonic heart cDNA (phage display / ELISA)
Text: Embryonic T7 phage display cDNA library and phage biopanning. Equal amounts of messenger RNA were isolated and purified from E9.5-E12.5 mouse embryonic hearts by using Straight A's mRNA Isolation System (Novagen). cDNA was synthesized by using T7Select10-3 OrientExpress cDNA Random Primer Cloning System (Novagen). The vector T7Select10-3 was used to display random-primed cDNA at the C terminus of 5-15 phage 10B coat protein molecules. 10^9 plaque-forming units of the T7 phage embryonic heart library (100× of the complexity) in 500 μl of PBST was applied to a column of Affi-gel bound to thymosin β4 to achieve low-stringency biopanning to identify thymosin β4 interacting partners. See Supplementary Methods for details of phage packaging, phage biopanning and ELISA confirmation.
(§2) Co-immunoprecipitation. Cos and 10T1/2 cells were transfected with thymosin β4, PINCH and/or ILK and lysates precipitated with antibodies to each as previously described (Garg et al., 2003). Western blots were performed using anti-ILK polyclonal antibody (Santa Cruz), anti-thymosin β4 polyclonal antibody (Yu et al., 1993) (gift of H. Yin) and anti-Myc or anti-Flag antibody against tagged versions of PINCH.
Thymosin β4 activates ILK and Akt. […]

ILK = target: T2, ILK (Homo sapiens, UniProt Q13418); test: Co-immunoprecipitation of thymosin β4 with ILK; format: binding
T2 construct: expressed in transfected cells; host or cells: Cos and 10T1/2 cells
T2 sequence (Q13418 1-452): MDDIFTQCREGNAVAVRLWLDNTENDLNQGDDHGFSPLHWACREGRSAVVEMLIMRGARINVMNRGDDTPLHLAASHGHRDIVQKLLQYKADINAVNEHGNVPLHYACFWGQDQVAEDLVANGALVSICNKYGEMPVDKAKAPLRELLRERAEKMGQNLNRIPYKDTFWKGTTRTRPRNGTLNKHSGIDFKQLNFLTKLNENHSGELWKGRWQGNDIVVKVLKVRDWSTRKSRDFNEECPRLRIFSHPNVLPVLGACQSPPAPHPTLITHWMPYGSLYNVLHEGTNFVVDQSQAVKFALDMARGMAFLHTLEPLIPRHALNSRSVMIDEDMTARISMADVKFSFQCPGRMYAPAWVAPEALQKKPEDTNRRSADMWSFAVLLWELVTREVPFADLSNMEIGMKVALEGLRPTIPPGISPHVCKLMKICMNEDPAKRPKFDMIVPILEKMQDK
Procedure: as §2
Thymosin β4 activates ILK and Akt. To investigate the potential mechanisms through which thymosin β4 might be influencing cell migration and survival events, the inventors searched for thymosin β4 interacting proteins. The amino terminus of thymosin β4 was fused with affi-gel beads resulting in exposure of the C-terminus, which allowed identification of previously unknown interacting proteins but prohibited association with actin. The inventors synthesized and screened an E9.5-E12.5 mouse heart T7 phage complementary DNA library by phage display, and thymosin-β4-interacting clones were enriched and confirmed by enzyme-linked immunosorbent assay (ELISA, FIG. 3A). […] PINCH and ILK interact directly with one another and indirectly with the actin cytoskeleton as part of a larger complex involved in cell-extracellular matrix interactions known as the focal adhesion complex. […]

[4] = system: C57BL/6J mice after ligation of the left anterior descending coronary artery; test: Myocardial infarction by coronary artery ligation: echocardiography, scar, TUNEL; format: in vivo, mouse
Text: Immunohistochemistry. Embryonic or adult cardiac tissue was embedded in paraffin and sections used for immunohistochemistry. […] Adult hearts were sectioned at ten equivalent levels from the base of the heart to the apex. Serial sections were used for trichrome sections and reaction with muscle actin, c-kit, Sca-1, Abcg2 and BrdU antibodies and for TUNEL assay (Intergen Company S7111).
(§3) Animals and surgical procedures. Myocardial infarction was produced in 58 male C57BL/6J mice at 16 weeks of age (25-30 g) by ligation of the left anterior descending coronary artery as previously described (Garner et al., 2003). All animal protocols were reviewed and approved by the University of Texas Southwestern Medical Center Institutional Animal Care Advisory Committee and were in compliance with the rules governing animal use as published by the NIH. Twenty-nine of the ligated mice received thymosin β4 treatment immediately after ligation and the remaining 29 received PBS injections. Treatment was given intracardiac with thymosin β4 (200 ng in 10 μl collagen) or with 10 μl of collagen; intraperitoneally with thymosin β4 (150 μg in 300 μl PBS) or with 300 μl of PBS; or by both intracardiac and intraperitoneal injections. Intraperitoneal injections were given every 3 days until mice were killed. Doses were based on previous studies of thymosin β4 biodistribution (Mora et al., 1997). Hearts were removed, weighed and fixed for histological sectioning. Additional mice were operated on in a similar fashion for studies 0.5, 1, 3, 6 and 11 days after ligation.
Analysis of cardiac function by echocardiography. Echocardiograms to assess systolic function were performed using M-mode and two-dimensional measurements as described previously (Garner et al., 2003). The measurements represented the average of six selected cardiac cycles from at least two separate scans performed in random-blind fashion with papillary muscles used as a point of reference for consistency in level of scan. End diastole was defined as the maximal left ventricle diastolic dimension and end systole was defined as the peak of posterior wall motion. Single outliers in each group were omitted for statistical analysis. Fractional shortening (FS), a surrogate of systolic function, was calculated from left ventricle dimensions as follows: FS=((EDD−ESD)/EDD)×100%. Ejection fraction (EF) was calculated from two-dimensional images.
Calculation of scar volume. Scar volume was calculated using six sections through the heart of each mouse using Openlab 3.03 software (Improvision) similar to that previously described (Balsam et al., 2004). Percent area of collagen deposition was measured on each section in a blinded fashion and averaged for each mouse.
Statistical analyses. Statistical calculations were performed using a standard t-test of variables with 95% confidence intervals.
Thymosin β4 promotes cell survival after myocardial infarction and improves cardiac function. Because of the effects of thymosin β4 on cardiac cells in vitro, the inventors tested whether thymosin β4 might aid in cardiac repair in vivo after myocardial damage. The inventors created myocardial infarctions in 58 adult mice by coronary artery ligation and treated half with systemic, intracardiac, or systemic plus intracardiac thymosin β4 immediately after ligation and the other half with PBS (FIGS. 4A-E). All 45 mice that survived 2 weeks later were interrogated for cardiac function by random-blind ultrasonography at 2 and 4 weeks after infarction by multiple measurements of cardiac contraction (FIGS. 4A-D).
TUNEL-positive cells that were also myocytes were rare in the thymosin β4 group but abundant in the control hearts. […] Thus, the decreased scar volume and preserved function of thymosin-β4-treated mice were probably due to early preservation of myocardium after infarction through the effects of thymosin β4 on survival of cardiomyocytes.

[5] = system: ILK, phosphorylated Akt-S 473; test: Western blot on heart lysates after coronary ligation; format: in vivo, mouse
Text: as §3
Similar to cultured cells, the level of ILK protein was increased in heart lysates of mice treated with thymosin β4 after coronary ligation compared with PBS-treated mice (FIG. 5N).

[6] = compared to control cells, data not shown

T1 sequence (Q99JW4 whole entry): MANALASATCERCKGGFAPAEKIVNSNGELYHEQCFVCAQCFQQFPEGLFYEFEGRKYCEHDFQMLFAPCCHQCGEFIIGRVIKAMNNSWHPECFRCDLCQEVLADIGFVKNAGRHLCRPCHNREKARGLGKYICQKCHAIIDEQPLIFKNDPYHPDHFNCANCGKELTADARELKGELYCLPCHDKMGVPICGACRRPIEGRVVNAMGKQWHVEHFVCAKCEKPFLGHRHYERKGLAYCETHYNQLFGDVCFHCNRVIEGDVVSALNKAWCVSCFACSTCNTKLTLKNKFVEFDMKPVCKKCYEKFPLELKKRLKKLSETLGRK

## C3 transferase [reference compound]
[1]; COS1 or C2C12 cells, F-actin polymerization inhibited, data not shown
  effect on thymosin β4-induced ILK activation: neither intervention affected the ILK activation

## thymosin β4
[2]; E11.5 outflow tract explants on collagen, 30 ng per 300 μl thymosin β4 vs PBS, P<0.0001
  myocardial cell migration away from the explant: large number of spontaneously beating, cardiac muscle actin-positive cells that migrated away from the explant
[2]; [6]
  cell death of migrating cells (TUNEL assay): No significant difference
  proliferative rate of migrating cells (phospho-histone H3 immunostaining): No significant difference
[3]; controls beat for up to 2 weeks
  time for which rhythmically contracting myocytes were visible: up to 28 days
[3]; controls typically survive approximately 1 to 2 weeks
  survival of neonatal cardiomyocytes in primary culture: survived significantly longer
[3]; laminin-coated glass, vs PBS control, P<0.05
  migrational distance of neonatal cardiomyocytes: significantly increased
[3]; versus 50 in control, P<0.02
  rate of beating: 95 beats per minute
PINCH; in the absence of actin, N-terminus fused to affi-gel beads
  interaction with PINCH (phage display, ELISA): interacted
PINCH; transfected cultured cells
  co-precipitation with PINCH: co-precipitated
ILK; immunoprecipitation of PINCH, ILK and thymosin β4
  strength of interaction of ILK with thymosin β4 in the common complex: weaker than with PINCH
ILK; transfected cultured cells
  co-precipitation with ILK: co-precipitated
[1]; C2C12 cells
  ILK protein levels (western): modest increase
  total Akt protein: unchanged
[1]; C2C12 cells, phospho-specific antibody
  phosphorylation of Akt at serine 473: increased phosphorylation
[1]; embryonic heart explants or C2C12 myoblasts, synthetic protein 10 ng per 100 μl or expressing plasmid
  ILK detection around the cell edges by immunocytochemistry: markedly enhanced
[4]; 3, 6, 11 or 14 days after coronary ligation, data not shown
  cardiomyocyte proliferation or death: did not detect significant
[4]; 24 h after ligation
  cell death by TUNEL assay in cardiomyocytes: marked decrease
[4]; 24 h after ligation, abundant in control hearts
  TUNEL-positive cells that were also myocytes: rare
[4]; 3 days after infarction, intracardiac treatment, control 44.7±8.4%, P<0.02
  ejection fraction: 64.2±6.69%
[4]; 3 days after infarction, intracardiac treatment, n=4, 95% confidence interval, control 28.8±2.26%, P<0.02
  left ventricle fractional shortening: 39.2±2.34%
[4]; after infarction, EDD and ESD significantly higher in control group
  cardiac dilation (end diastolic and end systolic dimensions): decreased cardiac dilation
[4]; four weeks after coronary ligation, n=23, 95% confidence interval, control 28.2±2.5%, P<0.0001
  mean ejection fraction: 57.7±3.2%
[4]; four weeks after infarction, n=23, 95% confidence intervals, control 23.2±1.2%, P<0.0001
  mean left ventricular fractional shortening: 37.2±1.8%
[4]; six levels of sections through left ventricle, subset of mice, P<0.05
  scar volume: significant reduction
[4]; systemic i.p. 150 μg vs local 200 ng within the infarct
  degree of functional improvement, intraperitoneal versus intracardiac administration: not statistically different
[4]; three levels of section, all treated mice
  size of scar (trichrome stain): reduced
[4]; treated vs untreated hearts, data not shown
  number of c-kit, Sca-1 or Abcg2 positive cardiomyocytes: failed to detect any differences
[4]; trichrome stain
  size of scar, systemic versus local delivery: not different
[4]; versus control, four weeks
  improvement in cardiac fractional shortening: greater than 60%
  improvement in ejection fraction: > 100%
[5]; compared with PBS-treated mice
  level of ILK protein in heart lysates: increased
[5]; phospho-specific antibodies
  amount of phosphorylated Akt-S 473 in heart lysates: elevation
